Patent US5767253A, “A83543 Compounds; factors Q, R, S, and T” (priority 1995, dated 1998)
≈ marks a conversion by molar mass, not a printed value.

Columns and labels:
[1] = test system: Aster Leafhopper; assay: Mite/insect screen, Aster Leafhopper (ALH); type: in vivo; details: Macrosteles fascifrons, 24 hr, mean of single replicate tests
Procedure: (§1) The Formula 2 compounds were tested for miticidal and insecticidal activity in the following mite/insect screen. Each test compound was formulated by dissolving the compound in an acetone-alcohol (1:1) mixture containing 23 g of TOXIMUL R (sulfonate/nonionic emulsifier blend) and 13 g of TOXIMUL S (sulfonate/nonionic emulsifier blend) per liter. These mixtures were then diluted with water to give the indicated concentrations.
(§2) Two-spotted spider mites and cotton aphids were introduced on squash cotyledons and allowed to establish on both leaf surfaces. The leaves were then sprayed with 5 ml of test solutions using a DeVilbiss atomizing sprayer at 10 psi. Both surfaces of the leaves were covered until run off and then allowed to dry for one hour. After standard exposure periods percent mortality was evaluated. Additional insects were evaluated using similar formulations and evaluation procedures. The results are reported in Table V. The following abbreviations are used: […]

[2] = test system: Beet Armyworm; assay: Mite/insect screen, Beet Armyworm (BAW); type: in vivo, Spodoptera exiqua; details: Spodoptera exigua, 144 h, 6 day, mean of single replicate tests
Procedure: as §1, §2

[3] = test system: Cotton Aphid; assay: Mite/insect screen, Cotton Aphid (CA); type: in vivo, Aphis gossypii Glover; details: Aphis gossypii, 4-5 day, mean of single replicate tests
Procedure: as §1, §2

[4] = test system: German Cockroach; assay: Mite/insect screen, German Cockroach (GECR); type: in vivo; details: Blattella germanica, mean of single replicate tests
Procedure: as §1, §2

[5] = test system: Rootknqt Nemat.ode; assay: Mite/insect screen, Rootknot Nematode (NEM); type: in vivo, Meliiodyne spp.; details: 264 h, 11 day, mean of single replicate tests
Procedure: as §1, §2

[6] = test system: Southern Corn Rootworm; assay: Mite/insect screen, Southern Corn Rootworm (SCRW); type: in vivo, Diabrotica undecimpunctata howardi; details: 264 h, 11 day, mean of single replicate tests
Procedure: as §1, §2

[7] = test system: Tobacco Budworm; assay: Mite/insect screen, Tobacco Budworm (TBW); type: in vivo; details: Heliothis virescens, 144 h, 6 day, mean of single replicate tests
Procedure: as §1, §2

[8] = test system: Two-spotted Spider Mite; assay: Mite/insect screen, Two-spotted Spider Mite (TSSM); type: in vivo; details: Tetranychus urticae, 4-5 day, mean of single replicate tests
Procedure: as §1, §2

[9] = test system: neonate tobacco budworm; assay: LD50 against neonate tobacco budworm; type: in vivo; details: Heliothis virescens; neonate larvae; mean of two tests; mortality evaluated at 24 and 48 hours
Procedure: The Formula 2 compounds were evaluated in the following assay to determine the LD50 against neonate tobacco budworm (Heliothis virescens). A petri dish (100 mm ×20 mm) is inverted and the lid lined with a #1 qualitative filter paper. Ten neonate larvae are placed in each dish and a 1 ml test solution is pipetted onto the insects. The petri dish bottom is then placed on the lid to contain the larvae. At 1 hr. after treatment, a small piece of Heliothis diet (modified slurry, Southland Products, Lake Village, Ariz.) is added to each dish. The mortality is evaluated at 24 and 48 hours. The tests were run in triplicate.

[10] = test system: Blowfly Larvae; assay: Activity against blowfly larvae (in vitro); type: in vivo
Source text: (§3) Tables VII and VIII summarize in vitro studies using compounds of the present invention against members of the insect order Diptera.

[11] = test system: Adult Stablefly; assay: Activity against adult stablefly (in vitro); type: in vivo; details: Stomoxys calcitrans
Source text: as §3

Row | SMILES | inhibition at 50 ppm [1] [%] | inhibition at 400 ppm [1] [%] | inhibition at 50 ppm [2] [%] | inhibition at 400 ppm [2] [%] | inhibition at 50 ppm [3] [%] | inhibition at 400 ppm [3] [%] | inhibition at 50 ppm ([4]; 168 h, 7 day) [%] | inhibition at 400 ppm ([4]; 168 h, 7 day) [%] | inhibition at 50 ppm ([4]; 504 h, 21 day) [%] | inhibition at 400 ppm ([4]; 504 h, 21 day) [%] | inhibition at 400 ppm [5] [%] | inhibition at 400 ppm [6] [%] | inhibition at 21 ppm [7] [%] | inhibition at 64 ppm [7] [%] | inhibition at 50 ppm [8] [%] | inhibition at 400 ppm [8] [%] | LC50 [9] [µg/mL] | % mortality ([10]; 5 ppm, 24 hrs.) [%] | % mortality ([10]; 5 ppm, 48 hrs.) [%] | % mortality ([10]; 10 ppm, 24 hrs.) [%] | further results
1 | CC[C@H]1CCC[C@H](O[C@H]2CC[C@H](N(C)C)[C@@H](C)O2)[C@@H](C)C(=O)C2=C[C@@H]3[C@@H](C=C(C)[C@@H]4C[C@@H](O[C@@H]5O[C@@H](C)[C@H](OC)[C@@H](OC)[C@H]5O)C[C@@H]34)[C@@H]2CC(=O)O1 [A83543Q] | 100 | 100 | 100 | 100 | 0 | 0 | 0 | 0 | 0 | 0 | 0 | 0 | 100 | 100 | 70 | 100 | 0.39 (≈ 0.533 µM) | 90 | 90 | 100 | % mortality ([10]; 10 ppm, 48 hrs.): 100%; mortality at 5 ppm ([11]; 24 h): 50%; mortality at 10 ppm ([11]; 24 h): 90%; mortality at 5 ppm ([11]; 48 h): 90%; mortality at 10 ppm ([11]; 48 h): 100%
2 | CC[C@H]1CCC[C@H](O[C@H]2CC[C@H](NC)[C@@H](C)O2)[C@@H](C)C(=O)C2=C[C@@H]3[C@@H](C=C[C@@H]4C[C@@H](O[C@@H]5O[C@@H](C)[C@H](OC)[C@@H](OC)[C@H]5O)C[C@@H]34)[C@@H]2CC(=O)O1 [A83543R] | 0 | 0 | 0 | 0 | 0 | 0 | 0 | 0 | 20 | 0 | 0 | 0 | 63 | 88 | 85 | 90 | 14.5 (≈ 20.6 µM) | 90 | 100 | 100 | % mortality ([10]; 10 ppm, 48 hrs.): 100%; mortality at 5 ppm ([11]; 24 h): 70%; mortality at 10 ppm ([11]; 24 h): 90%; mortality at 5 ppm ([11]; 48 h): 100%; mortality at 10 ppm ([11]; 48 h): 100%
3 | CO[C@@H]1[C@@H](OC)[C@@H](O)[C@H](O[C@H]2C[C@H]3[C@@H]4C=C5C(=O)[C@H](C)[C@@H](O[C@H]6CC[C@H](N(C)C)[C@@H](C)O6)CCC[C@H](C)OC(=O)C[C@H]5[C@@H]4C=C[C@@H]3C2)O[C@H]1C [A83543S] | 60 | 100 | 100 | 100 | 0 | 0 | 0 | 0 | 0 | 20 | 0 | 0 | 26 | 53 | 0 | 0 | 53 (≈ 75.3 µM) | 0 | 0 | 60 | % mortality ([10]; 10 ppm, 48 hrs.): 60%; mortality at 50 ppm ([11]; 24 h): 100%; mortality at 100 ppm ([11]; 24 h): 90%; mortality at 50 ppm ([11]; 48 h): 100%; mortality at 100 ppm ([11]; 48 h): 100%
4 | CC[C@H]1CCC[C@H](O[C@H]2CC[C@H](N(C)C)[C@@H](C)O2)[C@@H](C)C(=O)C2=C[C@@H]3[C@@H](C=C[C@@H]4C[C@@H](O[C@@H]5O[C@@H](C)[C@H](OC)[C@@H](O)[C@H]5O)C[C@@H]34)[C@@H]2CC(=O)O1 [A83543T] | 20 | 100 | 0 | 0 | 0 | 0 | 0 | 0 | 0 | 0 | 0 | 0 | 0 | 0 | 0 | 0 | > 64 |  |  |  | % mortality ([10]; 50 ppm, 24 hrs.): 0%; % mortality ([10]; 50 ppm, 48 hrs.): 0%; % mortality ([10]; 100 ppm, 24 hrs.): 0%; % mortality ([10]; 100 ppm, 48 hrs.): 0%; mortality at 50 ppm ([11]; 24 h): 60%; mortality at 100 ppm ([11]; 24 h): 80%; mortality at 50 ppm ([11]; 48 h): 70%; mortality at 100 ppm ([11]; 48 h): 90%
